# Assay results from ChEMBL document CHEMBL1151256, “New alkaloids and a tetraflavonoid from Cephalotaxus wilsoniana” (J Nat Prod, 2004).
# How the values were obtained:
# MCF7 = assay: Cytotoxicity against human MCF7 cells after 6 days by MTT assay; format: functional, cell-based; conditions: MCF7, 144 h
# HT-29 = assay: Cytotoxicity against human HT-29 cells after 6 days by MTT assay; format: functional, cell-based; conditions: HT-29, 144 h
# HepG2 = assay: Cytotoxicity against human HepG2 cells after 6 days by MTT assay; format: functional, cell-based; conditions: HepG2, 144 h
# [1] = Cytotoxicity against human Hep3B cells after 6 days by MTT assay; format: functional, cell-based, Hep 3B2; conditions: 144 h
smiles,measurement,setting,value
COc1cc2c(cc1OC)C13C[C@@H](OC)C=C[C@@]14O[C@H]4C(=O)N3CCC2 (some centres undefined),IC50,MCF7,42 µg/mL
same,IC50,HT-29,24.4 µg/mL
same,IC50,HepG2,52 µg/mL
same,IC50,[1],52 µg/mL
